Like-named read-outs stand apart in the source and are kept apart here. Square brackets hold non-standard residues; d marks the D form. Peptide text beside a SMILES is read from it. d(hPhe) = N[C@H](CCc1ccccc1)C(=O)O; dPhLac = O=C(O)[C@H](O)Cc1ccccc1
Experiments:
[1] = target: T1, Thrombin from human plasma (Homo sapiens, UniProt P00734); assay: Enzyme amidolytic assay, thrombin inhibition (chromogenic substrate S-2238); assay type: biochemical; conditions: for Ki: Ki Thrombin, S-2238 substrate, 25 °C, Cheng and Prusoff
T1 construct: Thrombin from human plasma; purchased Sigma; host or cells: human plasma
Method: (§1) The enzyme amidolytic method for determining inhibition was based on the spectrophotometric determination of absorbance of the product formed after amide bond cleavage of a chromogenic substrate in the presence of the enzyme. Ki, which is a quantitative measure of inhibitor potency, was determined from the kinetics of substrate hydrolysis with and without the addition of the inhibitor. Measurements (spectrophotometer, BioTek Synergy H4, BioTek Instruments, Winooski, VT, USA) were performed in 96-well microtiter plates with a final volume of 200 µL. Thrombin (Thrombin from human plasma, Sigma, Taufkirchen, Germany) was tested at a final concentration of 0.5 NIH E/mL with the substrate S-2238 (H-D-Phenylalanyl-L-pipecolyl-L-arginine-p-nitroaniline dihydrochloride, Chromogenix AB, Mondal, Sweden) at 20 and 40 mM final concentration, and factor Xa (Factor Xa from bovine plasma, Chromogenix) at the final concentration of 1 mBAEE E/mL with the substrate S-2222 (N-Benzoyl-L-isoleucyl-L-glutamyl-glycyl-L-arginine-p-nitroaniline hydrochloride and its methyl ester, Chromogenix) at 100 and 200 mM final concentrations. Trypsin (Trypsin from bovine pancreas, Sigma) was assayed at a final concentration of 0.5 nkat/mL using the substrate S-2222 (Chromogenix) at 50 and 100 mM final concentrations. Inhibitors were dissolved in DMSO (concentration of stock solutions, 10 mmol/L) and diluted with distilled water to concentrations from […]. Reaction rates were measured in the presence and the absence of the inhibitor. Then, 50 µL HBSA buffer, 50 µL solution of each inhibitor concentration (or of HBSA buffer in case of measurement without inhibitor), and 50 µL of enzyme solution were pipetted into the microtiter wells. The plate was incubated for 15 min at 25 °C and then […] of chromogenic substrate was added. Absorbance at 405 nm at 25 °C was measured every 10 s. Measurements were carried out in triplicate with three concentrations of the inhibitor and two concentrations of the substrate. For every combination of concentrations, Ki was calculated from the change of absorbance in the initial, linear part of the curve according to the method of Cheng and Prusoff and the final result was given as their average value.

[2] = target: T2, Factor Xa from bovine plasma (Bos taurus, UniProt P00743); assay: Enzyme amidolytic assay, factor Xa inhibition (chromogenic substrate S-2222); assay type: biochemical; conditions: for Ki: S-2222 substrate, 25 °C, Cheng and Prusoff
T2 construct: Factor Xa from bovine plasma; purchased Chromogenix; host or cells: bovine plasma
T2 sequence (P00743 41-180): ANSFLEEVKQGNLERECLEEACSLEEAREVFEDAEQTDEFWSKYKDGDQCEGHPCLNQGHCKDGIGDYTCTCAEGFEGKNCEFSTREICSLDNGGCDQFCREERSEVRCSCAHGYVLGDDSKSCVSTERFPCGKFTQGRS
T2 sequence (P00743 234-492): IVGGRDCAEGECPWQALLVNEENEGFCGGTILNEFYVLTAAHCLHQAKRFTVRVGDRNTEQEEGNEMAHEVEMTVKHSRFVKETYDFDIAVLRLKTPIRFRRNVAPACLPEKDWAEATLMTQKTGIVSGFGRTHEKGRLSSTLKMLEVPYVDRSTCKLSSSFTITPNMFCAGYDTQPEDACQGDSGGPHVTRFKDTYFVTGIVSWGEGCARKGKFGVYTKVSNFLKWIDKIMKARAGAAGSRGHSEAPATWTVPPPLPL
Method: as §1, with “Thrombin (Thrombin from human plasma, Sigma, Taufkirchen, Germany) was tested at a final concentration of 0.5 NIH E/mL with the substrate S-2238 (H-D-Phenylalanyl-L-pipecolyl-L-arginine-p-nitroaniline dihydrochloride, Chromogenix AB, Mondal, Sweden) at 20 and 40 mM final concentration, and factor Xa (Factor Xa from bovine plasma, Chromogenix) at the final concentration of 1 mBAEE E/mL with the substrate S-2222 (N-Benzoyl-L-isoleucyl-L-glutamyl-glycyl-L-arginine-p-nitroaniline hydrochloride and its methyl ester, Chromogenix) at 100 and 200 mM final concentrations. Trypsin (Trypsin from bovine pancreas, Sigma) was assayed at a final concentration of 0.5 nkat/mL using the substrate S-2222 (Chromogenix) at 50 and 100 mM final concentrations.” left out, “Absorbance at 405 nm at 25 °C was measured every 10 s.” left out

[3] = target: T3, Trypsin from bovine pancreas (Bos taurus, UniProt P00760); assay: Enzyme amidolytic assay, trypsin inhibition (chromogenic substrate S-2222); assay type: biochemical; conditions: for Ki: S-2222 substrate, 25 °C, Cheng and Prusoff
T3 construct: Trypsin from bovine pancreas; purchased Sigma; host or cells: bovine pancreas
T3 sequence (P00760 24-246): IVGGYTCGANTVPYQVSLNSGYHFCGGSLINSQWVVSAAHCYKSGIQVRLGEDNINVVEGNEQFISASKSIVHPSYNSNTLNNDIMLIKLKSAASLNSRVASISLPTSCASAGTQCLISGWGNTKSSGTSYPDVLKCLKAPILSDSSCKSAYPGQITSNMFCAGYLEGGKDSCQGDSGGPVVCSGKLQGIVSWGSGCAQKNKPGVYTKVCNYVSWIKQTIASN
Method: as §1

Thrombin = conditions: read-out: Thrombin Inhibition EC50; cited from earlier work

SMILES	Ki [1] [µM]	Ki ([2]; read-out: Ki Factor Xa) [µM]	Ki [3] [µM]	EC50 (Thrombin) [µM]	Ki ([2]; Ki Factor Xa) [µM]	IC50 [1] [µM]	IC50 ([2]; in brackets in Ki Factor Xa column) [µM]	IC50 ([3]; in brackets in Ki Trypsin column) [µM]
COC(=O)C(CCCNC(=N)N)NC(=O)C1Cc2ccccc2N1C(=O)C(CCc1ccccc1)NC(=O)C(O)Cc1ccc(O)cc1 (mixture of isomers) [Compound 11e]	30 ± 12	48 ± 5	3.9 ± 0.3	–	–	–	–	–
COC(=O)C(CCCNC(=N)N)NC(=O)C1Cc2ccccc2N1C(=O)C(CCc1ccccc1)NC(=O)C(O)Cc1ccc(O)cc1 (mixture of isomers) [Compound 11k]	34 ± 10	57 ± 8	72 ± 6	–	–	–	–	–
N=C(N)NCCC[C@@H](CO)NC(=O)[C@@H]1Cc2ccccc2N1C(=O)[C@@H](CCc1ccccc1)NC(=O)[C@@H](O)Cc1ccc(O)cc1 (mixture of isomers) [Compound 11l]	186 ± 48	62 ± 4	62 ± 3	–	–	–	–	–
C[C@H]1C[C@@H](C(=O)N[C@H](CO)CCCN=C(N)N)N(C(=O)[C@@H](CCc2ccc(O)cc2)NC(=O)[C@H](O)Cc2ccc(O)cc2)C1 (racemic) [spumigin A (racemate), spumigin A]	–	–	–	7.5	–	–	–	–
COC(=O)[C@H](CCCNC(=N)N)NC(=O)[C@H]1Cc2ccccc2N1C(=O)[C@@H](Cc1ccccc1)NC(=O)[C@H](O)Cc1ccccc1 (single isomer, unassigned) [Compound 11a]	52 ± 10	–	7.9 ± 3.5	–	49 ± 4	–	–	–
COC(=O)[C@H](CCCNC(=N)N)NC(=O)[C@H]1Cc2ccccc2N1C(=O)[C@@H](CCc1ccccc1)NC(=O)[C@H](O)Cc1ccccc1 (single isomer, unassigned) [Compound 11b]	44 ± 7	39 ± 6	2.8 ± 0.4	–	–	–	–	–
N=C(N)NCCC[C@@H](CO)NC(=O)[C@H]1Cc2ccccc2N1C(=O)[C@@H](Cc1ccccc1)NC(=O)[C@H](O)Cc1ccccc1 (single isomer, unassigned) [Compound 11c]	92 ± 20	54 ± 3	54 ± 1	–	–	–	–	–
N=C(N)NCCC[C@@H](CO)NC(=O)[C@H]1Cc2ccccc2N1C(=O)[C@@H](CCc1ccccc1)NC(=O)[C@H](O)Cc1ccccc1 (single isomer, unassigned) [Compound 11d]	11 ± 4	–	29 ± 2	–	47 ± 6	–	–	–
COC(=O)[C@H](CCCNC(=N)N)NC(=O)[C@@H]1Cc2ccccc2N1C(=O)[C@@H](Cc1ccccc1)NC(=O)[C@H](O)Cc1ccccc1 (single isomer, unassigned) [Compound 11g]	50 ± 9	–	126 ± 14	–	47 ± 8	–	–	–
COC(=O)[C@H](CCCNC(=N)N)NC(=O)[C@@H]1Cc2ccccc2N1C(=O)[C@@H](CCc1ccccc1)NC(=O)[C@H](O)Cc1ccccc1 (single isomer, unassigned) [Compound 11h]	24 ± 8	35 ± 9	58 ± 17	–	–	–	–	–
N=C(N)NCCC[C@@H](CO)NC(=O)[C@@H]1Cc2ccccc2N1C(=O)[C@@H](Cc1ccccc1)NC(=O)[C@H](O)Cc1ccccc1 (single isomer, unassigned) [Compound 11i]	170 ± 58	51 ± 4	50 ± 3	–	–	–	–	–
N=C(N)NCCC[C@@H](CO)NC(=O)[C@@H]1Cc2ccccc2N1C(=O)[C@@H](CCc1ccccc1)NC(=O)[C@H](O)Cc1ccccc1 (single isomer, unassigned) [Compound 11j]	187 ± 79	–	693 ± 159	–	41 ± 9	–	–	–
N=C(N)NCCC[C@H](NC(=O)[C@H]1Cc2ccccc2N1C(=O)[C@@H](Cc1ccccc1)NC(=O)[C@H](O)Cc1ccccc1)C(=O)O (single isomer, unassigned) [Compound 12g]	98 ± 26	69 ± 1	0.28 ± 0.04	–	–	–	–	–
COC(=O)[C@H](CCCNC(=N)N)NC(=O)[C@@H]1Cc2ccccc2N1C(=O)[C@@H](CC(C)C)NC(=O)[C@H](O)Cc1ccccc1 (single isomer, unassigned) [Compound 29a]	5.6 ± 0.3	30 ± 2	4.8 ± 0.7	–	–	–	–	–
COC(=O)[C@H](CCCNC(=N)N)NC(=O)[C@H]1Cc2ccccc2N1C(=O)[C@@H](CC(C)C)NC(=O)[C@H](O)Cc1ccccc1 (single isomer, unassigned) [Compound 29b]	129 ± 13	65 ± 2	134 ± 42	–	–	–	–	–
N=C(N)NCCCC(CO)NC(=O)C1Cc2ccccc2N1C(=O)C(CCc1ccccc1)NC(=O)C(O)Cc1ccc(O)cc1 (stereo not drawn) [Compound 11f]	20 ± 3	76 ± 3	14 ± 1	–	–	–	–	–
COC(=O)[C@@H](CCCNC(=N)N)NC(=O)[C@H]1CCCN1C(=O)[C@@H](CCc1ccccc1)NC(=O)[C@H](O)Cc1ccccc1 [Compound 21a, Methyl ((R)-2-((R)-2-hydroxy-3-phenylpropanamido)-4-phenylbutanoyl)-D-prolyl-D-argininate] (H-[dPhLac][d(hPhe)][dP][dR]-OMe)	3.8 ± 0.4	18 ± 4	1.4 ± 0.2	–	–	33	29	4.2
COC(=O)C(CCCNC(=N)N)NC(=O)C1CCCN1C(=O)C(CCc1ccccc1)NC(=O)C(O)Cc1ccc(O)cc1 [Compound 21b, Methyl ((R)-2-((R,S)-2-hydroxy-3-(4-hydroxyphenyl)propanamido)-4-phenylbutanoyl)-D-prolyl-D-argininate]	3.9 ± 0.4	29 ± 5	0.92 ± 0.08	–	–	–	–	–
C[C@H]1C[C@@H](C(=O)N[C@H](CO)CCCN=C(N)N)N(C(=O)[C@@H](CCc2ccc(O)cc2)NC(=O)[C@H](O)Cc2ccc(O)cc2)C1 [spumigin A]	–	–	–	2.1	–	–	–	–
C[C@H]1C[C@@H](C(=O)N(C)[C@H](CCCCN)C(=O)O)N(C(=O)[C@@H](CCc2ccc(O)cc2)NC(=O)[C@H](O)Cc2ccc(O)cc2)C1 [spumigin J]	–	–	–	4.9	–	–	–	–
